According to patent US20230293630A1, “Coronavirus T Cell Epitopes and Uses Thereof” (priority 2020, published 2023):
Where two headings read alike, the source gives them in different places.

System: SARS-CoV-2-specific CD4+ T cells (OX40+CD137+) in PBMC
Type: cell-based, human
[1] = CD4+ T cell epitopes identified by AIM assay, share of donors responding
[2] = CD4+ T cell epitopes identified by AIM assay, sum of response per responding donor
[3] = CD4+ T cell epitopes identified by AIM assay, total response
[4] = CD4+ T cell epitopes identified by AIM assay, percent of tested donors responding
[5] = CD4+ T cell epitopes identified by AIM assay, total response summed over donors

Sequence	Frequency of response (%) [1] [%]	Magnitude by # of responding donors [2]	Sum of response [3]	Frequency of response (%) [4] [%]	Sum of response [5]	Frequency of response (%)	Magnitude by # of responding donors	Sum of response
LTGTGVLTESNKKFL	7	427	427	–	–	–	–	–
LTQHGKEDLKFPRGQ	8	127	127	–	–	–	–	–
LTQYNRYLALYNKYK	8	638	638	–	–	–	–	–
LTYTGAIKLDDKDPN	17	742	1484	–	–	–	–	–
LVAAGLEAPFLYLYA	9	133	133	–	–	–	–	–
LVYFLQSINFVRIIM [SEQ ID NO 251]	–	218	–	7	218	–	–	–
LYENQKLIANQFNSA	7	195	195	–	–	–	–	–
LYIIKLIFLWLLWPV	13	199	397	–	–	–	–	–
LYLYALVYFLQSINF	21	124	371	–	–	–	–	–
MAAYVDNSSLTIKKP	7	185	185	–	–	–	–	–
MFTPLVPFWITIAYI	8	602	602	–	–	–	–	–
MKDLSPRWYFYYLGT	14	2536	5072	–	–	–	–	–
MWLSYFIASFRLFAR	25	343	1030	–	–	–	–	–
NAPRITFGGPSDSTG	6	259	259	–	–	–	–	–
NFSQILPDPSKPSKR	–	647	–	33	2589	–	–	–
NHTKKWKYPQVNGLT	9	123	123	–	–	–	–	–
NIDGYFKIYSKHTPI	45	295	1475	–	–	–	–	–
NKDGIIWVATEGALN	29	437	1747	–	–	–	–	–
NLLLQYGSFCTQLNR	–	1140	–	31	4560	–	–	–

Sequence	Frequency of response (%) [1] [%]	Magnitude by # of responding donors [2]	Sum of response [3]	Frequency of response (%) [4] [%]	Sum of response [5]	Frequency of response (%)	Magnitude by # of responding donors	Sum of response
NLVIGFLFLTWICLL	7	261	261	–	–	–	–	–
NLVRDLPQGFSALEP	27	607	1822	–	–	–	–	–
NLYDKLVSSFLEMKS	8	150	150	–	–	–	–	–
NPVLPFNDGVYFAST	9	413	413	–	–	–	–	–
NRNRFLYIIKLIFLW	13	210	420	–	–	–	–	–
NTVKSVGKFCLEASF	8	113	113	–	–	–	–	–
NVLFSTVFPPTSFGP	7	109	109	–	–	–	–	–
NVPLHGTILTRPLLE	8	263	263	–	–	–	–	–
PCPIHFYSKWYIRVG	–	–	–	–	–	55	491	2948
PDLNGDVVAIDYKHY	15	215	430	–	–	–	–	–
PLIELCVDEAGSKSP	18	171	341	–	–	–	–	–
PNFSKLINIIIWFLL	8	3802	3802	–	–	–	–	–
PQNQRNAPRITFGGP	6	222	222	–	–	–	–	–
PRPPLNRNYVFTGYR	8	101	101	–	–	–	–	–
PRWYFYYLGTGPEAG	7	750	750	–	–	–	–	–
PSGTWLTYTGAIKLD [SEQ ID NO 248]	–	–	–	–	–	42	517	2583
PVYSFLPGVYSVIYL	8	650	650	–	–	–	–	–
QDALFAYTKRNVIPT	6	132	132	–	–	–	–	–
QELGKYEQYIKWPWY	8	768	768	–	–	–	–	–
